{"source": "patent US8198287B2", "about": "“Substituted heteroaryl pyridopyrimidone derivatives” (Sanofi-Aventis, priority 2006, dated 2012)", "data": [{"molecular_target": "GSK3β (Homo sapiens, UniProt P49841)", "sequence (P49841 whole entry)": "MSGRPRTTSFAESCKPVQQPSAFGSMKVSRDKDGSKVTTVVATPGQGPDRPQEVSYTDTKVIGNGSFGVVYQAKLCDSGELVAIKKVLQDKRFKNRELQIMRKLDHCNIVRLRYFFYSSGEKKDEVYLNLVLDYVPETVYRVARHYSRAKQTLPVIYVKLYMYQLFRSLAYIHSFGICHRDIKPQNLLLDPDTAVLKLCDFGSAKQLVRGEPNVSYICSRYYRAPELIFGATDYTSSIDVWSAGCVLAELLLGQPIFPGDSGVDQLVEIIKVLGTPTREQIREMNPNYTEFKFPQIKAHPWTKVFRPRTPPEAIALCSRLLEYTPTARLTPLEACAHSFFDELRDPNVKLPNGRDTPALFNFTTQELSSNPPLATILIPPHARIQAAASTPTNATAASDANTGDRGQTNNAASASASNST", "assay": "Inhibitory activity against GSK3β (33P-ATP phosphorylation of prephosphorylated GS1 peptide; two alternative protocols)", "type": "biochemical", "conditions": "first or second protocol, not specified per compound", "procedure": "Inhibitory Activity of the Medicament of the Present Invention Against GSK3β\nTwo different protocols can be used.\nIn a first protocol: 7.5 μM of prephosphorylated GS1 peptide and 10 μM ATP (containing 300,000 cpm of ^33P-ATP) were incubated in 25 mM Tris-HCl, pH 7.5, 0.6 mM DTT, 6 mM MgCl2, 0.6 mM EGTA, 0.05 mg/ml BSA buffer for 1 hour at room temperature in the presence of GSK3beta (total reaction volume: 100 microliters).\nIn a second protocol: 4.1 μM of prephosphorylated GS1 peptide and 42 μM ATP (containing 260,000 cpm ^33P-ATP) were incubated in 80 mM Mes-NaOH, pH 6.5, 1 mM Mg acetate, 0.5 mM EGTA, 5 mM 2-mercaptoethanol, 0.02% Tween 20, 10% glycerol buffer for 2 hours at room temperature in the presence of GSK3beta.\nInhibitors were solubilized in DMSO (final solvent concentration in the reaction medium, 1%).\nThe reaction was stopped with 100 microliters of a solution made of 25 g polyphosphoric acid (85% P2O5), 126 ml 85% H3PO4, H2O to 500 ml and then diluted to 1:100 before use. An aliquot of the reaction mixture was then transferred to Whatman P81 cation exchange filters and rinsed with the solution described above. Incorporated ^33P radioactivity was determined by liquid scintillation spectrometry.\nThe phosphorylated GS-1 peptide had the following sequence:\nNH2—[…](P)EDEE-COOH. (Woodgett, J. R. (1989) Analytical Biochemistry 180, 237-241.", "units": {"IC50": "nM"}, "values": [{"compound": "O=C(NC1CCCCn2c1nc(-c1ccncn1)cc2=O)c1cccc(Cl)n1", "note": "(racemic) [53 of table 3, (+/−)6-Chloro-pyridine-2-carboxylic acid (4-oxo-2-pyrimidin-4-yl-4,6,7,8,9,10-hexahydro-pyrimido[1,2-a]azepin-10-yl)-amide]", "IC50": 5}, {"compound": "CSc1ncc(Cl)c(C(=O)NC2CCn3c2nc(-c2ccncn2)cc3=O)n1", "note": "(racemic) [14 of table 2, (+/−)5-Chloro-2-methylsulfanyl-pyrimidine-4-carboxylic acid (4-oxo-2-pyrimidin-4-yl-4,6,7,8-tetrahydro-pyrrolo[1,2-a]pyrimidin-8-yl) -amide]", "IC50": 4}, {"compound": "Nc1c(Cl)cc(C(=O)NC2CCCn3c2nc(-c2ccncc2)cc3=O)c2c1OCCO2", "note": "(racemic) [13 of table 1, (+/−)8-Amino-7-chloro-2,3-dihydro-benzo[1,4]dioxine-5-carboxylic acid (4-oxo-2-pyridin-4-yl-6,7,8,9-tetrahydro-4H-pyrido[1,2-a]pyrimidin-9-yl)-amide]", "IC50": 14}]}]}
